From ChEMBL document CHEMBL1909046, “DrugMatrix in vitro pharmacology data”

Columns and labels:
[1] = target: T1, Alpha-2A adrenergic receptor (Homo sapiens, UniProt P08913); assay type: cell membranes, Sf9, Membrane; settings: sf9; note: in other assays of this panel Not Active means under 50% inhibition at 10 µM
T1 sequence (P08913 whole entry): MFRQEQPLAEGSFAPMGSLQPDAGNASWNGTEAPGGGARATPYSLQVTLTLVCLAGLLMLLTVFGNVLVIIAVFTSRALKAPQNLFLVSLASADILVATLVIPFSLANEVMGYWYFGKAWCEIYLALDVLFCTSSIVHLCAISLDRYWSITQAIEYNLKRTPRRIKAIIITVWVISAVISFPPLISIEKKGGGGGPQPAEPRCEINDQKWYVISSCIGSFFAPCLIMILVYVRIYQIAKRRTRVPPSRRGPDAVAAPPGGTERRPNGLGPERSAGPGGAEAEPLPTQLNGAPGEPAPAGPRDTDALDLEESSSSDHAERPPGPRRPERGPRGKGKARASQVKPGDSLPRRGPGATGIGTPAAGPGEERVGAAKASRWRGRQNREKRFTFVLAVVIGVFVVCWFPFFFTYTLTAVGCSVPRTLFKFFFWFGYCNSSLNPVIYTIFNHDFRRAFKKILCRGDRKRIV

[2] = target: T2, C-C chemokine receptor type 4 (Homo sapiens, UniProt P51679); assay type: cell membranes, Chem-1, Membrane; settings: chem-1; note: in other assays of this panel Not Active means under 50% inhibition at 10 µM
T2 sequence (P51679 whole entry): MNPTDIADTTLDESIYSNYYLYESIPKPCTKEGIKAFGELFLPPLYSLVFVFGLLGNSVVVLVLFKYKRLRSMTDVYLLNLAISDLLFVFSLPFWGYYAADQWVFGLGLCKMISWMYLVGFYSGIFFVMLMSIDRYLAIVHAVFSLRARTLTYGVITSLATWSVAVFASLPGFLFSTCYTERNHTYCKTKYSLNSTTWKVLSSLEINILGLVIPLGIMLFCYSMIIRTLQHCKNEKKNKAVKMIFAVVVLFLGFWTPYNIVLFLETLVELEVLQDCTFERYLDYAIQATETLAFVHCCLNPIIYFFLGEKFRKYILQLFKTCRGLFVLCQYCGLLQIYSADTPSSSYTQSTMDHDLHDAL

[3] = DRUGMATRIX: Glutamate, NMDA, Phencyclidine radioligand binding (ligand: [3H] TCP); assay type: cell membranes, Rattus norvegicus, Wistar, Cerebral cortex, Membrane; settings: Not Active = under 50% inhibition at 10 µM
[4] = target: Histamine H2 receptor (Homo sapiens, UniProt P25021); assay type: cell membranes, CHO-K1, Membrane; settings: cho-k1; note: in other assays of this panel Not Active means under 50% inhibition at 10 µM
[5] = DRUGMATRIX: Phosphodiesterase PDE4 enzyme inhibition (substrate: [3H]cAMP + cAMP); settings: u-937; Not Active = under 50% inhibition at 10 µM
[6] = target: Voltage-gated inwardly rectifying potassium channel KCNH2 (Homo sapiens, UniProt Q12809); settings: hek293; note: in other assays of this panel Not Active means under 50% inhibition at 10 µM
Sequence of Voltage-gated inwardly rectifying potassium channel KCNH2 (Q12809 whole entry): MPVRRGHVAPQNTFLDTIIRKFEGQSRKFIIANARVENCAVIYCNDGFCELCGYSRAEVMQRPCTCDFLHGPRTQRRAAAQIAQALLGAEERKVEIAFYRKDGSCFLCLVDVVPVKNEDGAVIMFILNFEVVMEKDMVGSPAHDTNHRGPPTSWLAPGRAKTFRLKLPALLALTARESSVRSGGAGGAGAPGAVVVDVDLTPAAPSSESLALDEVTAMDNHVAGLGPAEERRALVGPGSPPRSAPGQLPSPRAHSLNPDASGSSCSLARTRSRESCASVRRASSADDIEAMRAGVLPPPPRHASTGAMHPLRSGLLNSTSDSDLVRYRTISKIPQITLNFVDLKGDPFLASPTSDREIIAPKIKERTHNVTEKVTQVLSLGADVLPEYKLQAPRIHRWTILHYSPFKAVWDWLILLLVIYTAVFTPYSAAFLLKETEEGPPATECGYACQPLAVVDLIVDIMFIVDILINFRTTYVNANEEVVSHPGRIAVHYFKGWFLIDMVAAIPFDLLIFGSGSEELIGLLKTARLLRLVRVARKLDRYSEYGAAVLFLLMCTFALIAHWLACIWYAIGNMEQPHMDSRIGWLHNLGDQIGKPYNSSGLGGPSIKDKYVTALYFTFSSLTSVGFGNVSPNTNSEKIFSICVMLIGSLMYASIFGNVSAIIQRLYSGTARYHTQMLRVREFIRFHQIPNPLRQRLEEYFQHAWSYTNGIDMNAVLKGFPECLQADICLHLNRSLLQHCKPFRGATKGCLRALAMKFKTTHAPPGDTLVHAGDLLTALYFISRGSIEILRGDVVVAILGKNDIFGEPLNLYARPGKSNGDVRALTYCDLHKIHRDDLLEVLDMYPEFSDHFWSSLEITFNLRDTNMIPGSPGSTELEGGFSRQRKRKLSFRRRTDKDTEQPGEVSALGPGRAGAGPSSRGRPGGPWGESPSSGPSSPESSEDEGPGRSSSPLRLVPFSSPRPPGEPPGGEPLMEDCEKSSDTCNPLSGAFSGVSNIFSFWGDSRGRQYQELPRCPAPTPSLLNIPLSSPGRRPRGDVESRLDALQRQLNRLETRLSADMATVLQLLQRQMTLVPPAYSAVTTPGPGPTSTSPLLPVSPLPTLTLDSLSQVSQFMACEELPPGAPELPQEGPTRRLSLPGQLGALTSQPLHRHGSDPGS

Sequence of Histamine H2 receptor (P25021 whole entry): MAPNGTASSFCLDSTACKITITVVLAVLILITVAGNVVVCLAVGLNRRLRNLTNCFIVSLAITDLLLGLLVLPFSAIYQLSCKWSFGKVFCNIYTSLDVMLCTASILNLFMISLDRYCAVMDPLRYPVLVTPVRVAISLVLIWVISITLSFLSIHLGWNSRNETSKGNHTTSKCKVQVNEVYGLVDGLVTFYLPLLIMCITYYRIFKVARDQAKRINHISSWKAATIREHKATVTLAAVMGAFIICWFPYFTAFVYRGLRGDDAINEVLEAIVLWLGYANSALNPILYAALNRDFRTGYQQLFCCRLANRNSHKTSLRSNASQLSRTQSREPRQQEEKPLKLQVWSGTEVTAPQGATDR

CC1(C)O[C@@H]2C[C@H]3[C@@H]4CCC5=CC(=O)C=C[C@]5(C)[C@@]4(F)[C@@H](O)C[C@]3(C)[C@]2(C(=O)CO)O1 [TRIAMCINOLONE ACETONIDE]
Not Active: IC50 [1] | IC50 [2] | IC50 [3] | Ki [3] | IC50 [4] | IC50 [5] | Ki [5] | IC50 [6] | Ki [6]

NS(=O)(=O)c1cc2c(cc1Cl)NC(C(Cl)Cl)NS2(=O)=O (stereo not given) [TRICHLORMETHIAZIDE]
Not Active: IC50 [1] | IC50 [2] | IC50 [3] | Ki [3] | IC50 [4] | IC50 [5] | Ki [5] | IC50 [6] | Ki [6]

Cc1c(C)c2c(c(C)c1O)CCC(C)(COc1ccc(CC3SC(=O)NC3=O)cc1)O2 (stereo not given) [TROGLITAZONE]
Not Active: IC50 [1] | IC50 [2] | IC50 [3] | Ki [3] | IC50 [4] | IC50 [5] | Ki [5] | IC50 [6] | Ki [6]

N[C@@H]1[C@H]2CN(c3nc4c(cc3F)c(=O)c(C(=O)O)cn4-c3ccc(F)cc3F)C[C@@H]12 [TROVAFLOXACIN]
Not Active: IC50 [1] | IC50 [2] | IC50 [3] | Ki [3] | IC50 [4] | IC50 [5] | Ki [5] | IC50 [6] | Ki [6]

N#CC(C#N)=Cc1ccc(O)c(O)c1 [TYRPHOSTIN 23]
Not Active: IC50 [1] | IC50 [2] | IC50 [3] | Ki [3] | IC50 [4] | IC50 [5] | Ki [5] | IC50 [6] | Ki [6]

CC[C@]1(O)C[C@H]2CN(CCc3c([nH]c4ccccc34)[C@@](C(=O)OC)(c3cc4c(cc3OC)N(C=O)[C@H]3[C@@](O)(C(=O)OC)[C@H](OC(C)=O)[C@]5(CC)C=CCN6CC[C@]43[C@@H]65)C2)C1 [VINCRISTINE]
Not Active: IC50 [1] | IC50 [2] | IC50 [3] | Ki [3] | IC50 [4] | IC50 [5] | Ki [5] | IC50 [6] | Ki [6]

CCCOc1ccccc1-c1nc2nn[nH]c2c(=O)[nH]1 [ZAPRINAST]
Not Active: IC50 [1] | IC50 [2] | IC50 [3] | Ki [3] | IC50 [4] | IC50 [5] | Ki [5] | IC50 [6] | Ki [6]

SODIUM NITROPRUSSIDE
Not Active: IC50 [1] | Ki [1] | IC50 [2] | Ki [2] | IC50 [3] | Ki [3] | IC50 [4] | Ki [4] | IC50 [5] | Ki [5] | IC50 [6] | Ki [6]
